In general, IC50 refers to the concentration that gives 50% inhibition. Read a low IC50 as greater potency.

The target of the test is T1, human renin (Homo sapiens, UniProt P00797).
T1 sequence (P00797 67-406): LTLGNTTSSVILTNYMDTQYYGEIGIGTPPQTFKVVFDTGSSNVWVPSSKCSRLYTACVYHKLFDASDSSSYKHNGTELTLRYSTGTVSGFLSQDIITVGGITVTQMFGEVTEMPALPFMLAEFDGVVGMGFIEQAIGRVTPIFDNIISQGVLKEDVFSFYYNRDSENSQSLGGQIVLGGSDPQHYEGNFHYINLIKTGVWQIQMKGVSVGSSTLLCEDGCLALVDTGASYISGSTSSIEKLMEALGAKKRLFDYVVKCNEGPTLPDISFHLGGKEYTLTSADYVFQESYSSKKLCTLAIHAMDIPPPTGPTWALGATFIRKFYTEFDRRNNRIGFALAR
The experiment in a line: In vitro Test With Pure Human Renin. The format is biochemical. The following applies: human tetradecapeptide substrate, pH 7.4, 3 h at 37° C., angiotensin I by RIA. On the procedure: The tests can be carried out in analogy to those described by D. T. Pals et al. in Hypertension Vol. 8, 1105-1112 (1986) or J. Boger et al. in J. Med. Chem. 28, 1779-1790 (1985) or […] et al. in J. Med. Chem. 30, 2137-2144 (1987) or T. Kokubu et al. in Biochem. Biophys. Res. Commun. 118, 929-993 (1984): In vitro Test With Pure Human Renin The test is carried out in Eppendorf test tubes. The incubation mixture consists of (1) 100 μl of human renin in buffer A (0.1 M sodium phosphate solution, pH 7.4, containing 0.1% bovine serum albumin, 0.1% sodium aside and 1 mM ethylenediaminetetraacetic acid), sufficient for a renin activity of 2-3 ng of angiotensin I/ml/hr.; (2) 145 μl of buffer A: (3) 30 μl of 10 mM human tetradecapeptide renin substrate (hTD) in 10 mM hydrochloric acid: (4) 15 μl of dimethyl sulphoxide with or without inhibitor and (5) 10 μl of a 0.03 molar solution of hydroxyquinoline sulphate in water. The samples are incubated for three hours at 37° C. and, respectively, 4° C. in triplicate. 2×100 μl samples per test tube are used in order to measure the production of angiotensin I via RIA (standard radioimmunoassay; clinical assay solid phase kit). Cross reactivities of the antibody used in the RIA are: angiotensin I 100%; angiotensin II 0.0013%; hTD (angiotensin […]-OH) 0.09%. The production of angiotensin I is determined by the difference between the test at 37° C. and that at 4° C. The following controls are carried out: (a) Incubation of hTD samples without renin and without inhibitor at 37° C. and 4° C. The difference between these two values gives the base value of the angiotensin I production. (b) Incubation of hTD samples with renin, but without inhibitor at 37° C. and 4° C. The difference between these values gives the maximum value of the angiotensin I production. In each sample the base value of the angiotensin I production is subtracted from the angiotensin I production which is determined. […] The IC50 values are determined from a linear regression curve from a logit-log plot.
Regarding `COc1ccccc1COCCCOc1ccc([C@H]2CCNC[C@@H]2OCc2ccc3c(c2)N(CC#N)CCC3)cc1` [G, (3R,4R)-[7-(4-[4-[3-(2-methoxy-benzyloxy)-propoxy]-phenyl]-piperidin-3-yloxymethyl)-3,4-dihydro-2H-quinolin-1-yl]-acetonitrile], the IC50 was found to be 0.07 nM.
Under `COc1ccccc1COCCCOc1ccc([C@H]2CCNC[C@@H]2OCc2ccc3c(c2)N(CCNS(C)(=O)=O)CCC3)cc1` [H, (3R,4R)-N-[2-[7-[4-[4-[3-(2-methoxy-benzyloxy)-propoxy]-phenyl]-piperidin-3-yloxymethyl]-3,4-dihydro-2H-quinolin-1-yl]-ethyl]-methanesulfonamide] stands 0.07 nM; under `COc1ccccc1COCCCOc1ccc([C@H]2CCNC[C@@H]2OCc2ccc3c(c2)N(CCNS(N)(=O)=O)CCC3)cc1` [Compound I, (3R,4R)-N-[2-[7-[4-[4-[3-(2-methoxy-benzyloxy)-propoxy]-phenyl]-piperidin-3-yloxymethyl]-3,4-dihydro-2H-quinolin-1-yl]-ethyl]-sulfamide], 0.06 nM; under `COc1ccccc1COCCCOc1ccc([C@H]2CCNC[C@@H]2OCc2ccc3c(c2)N(CCNC(C)=O)CCC3)cc1` [A, (3R,4R)-N-[2-[7-[4-[4-[3-(2-methoxy-benzyloxy)-propoxy]-phenyl]-piperidin-3-yloxymethyl]-3,4-dihydro-2H-quinolin-1-yl]-ethyl]-acetamide], 0.05 nM.
With `COCCCN1CCCc2ccc(CO[C@H]3CNCC[C@@H]3c3ccc(OCCCOCc4ccccc4OC)cc3)cc21` [F, (3R,4R)-7-[4-[4-[3-(2-methoxy-benzyloxy)-propoxy]-phenyl]-piperidin-3-yloxymethyl)-1-(3-methoxy-propyl]-1,2,3,4-tetrahydro-quinoline] the figure was 0.05 nM; with `COc1ccccc1COCCCOc1ccc([C@H]2CCNC[C@@H]2OCc2ccc3c(c2)N(CCNC(N)=O)CCC3)cc1` [J], 0.09 nM; with `COc1ccccc1COCCCOc1ccc([C@H]2CCNC[C@@H]2OCc2ccc3c(c2)N(CCNC(=O)C(F)(F)F)CCC3)cc1` [K, (3R,4R)-2,2,2-trifluoro-N-[2-[7-[4-[4-[3-(2-methoxy-benzyloxy)-propoxy]-phenyl]-piperidin-3-yloxymethyl]-3,4-dihydro-2H-quinolin-1-yl]-ethyl]-acetamide], 0.05 nM.
With `COC(=O)CCN1CCCc2ccc(COC3CNCC[C@@H]3c3ccc(OCCCOCc4ccccc4OC)cc3)cc21` (mixture of isomers) [E, (3RS,4R)-3-[7-(4-[4-[3-(2-methoxy-benzyloxy)-propoxy]-phenyl]-piperidin-3-yloxymethyl)-3,4-dihydro-2H-quinolin-1-yl]-propionic acid methyl ester] the figure was 0.04 nM; with `COc1ccccc1COCCCOc1ccc([C@H]2CCNC[C@@H]2OCc2ccc3c(c2)N(CCCO)CCC3)cc1` [C, (3R,4R)-3-[7-[4-[4-[3-(2-methoxy-benzyloxy)-propoxy]-phenyl]-piperidin-3-yloxymethyl]-3,4-dihydro-2H-quinolin-1-yl]-propan-1-ol], 0.08 nM; with `CCOC(=O)CN1CCCc2ccc(CO[C@H]3CNCC[C@@H]3c3ccc(OCCCOCc4ccccc4OC)cc3)cc21` [B, (3R,4R)-[7-(4-[4-[3-(2-methoxy-benzyloxy)-propoxy]-phenyl]-piperidin-3-yloxymethyl)-3,4-dihydro-2H-quinolin-1-yl]-acetic acid ethyl ester], 0.05 nM.
With `COC(=O)CN1CCCc2ccc(CO[C@H]3CNCC[C@@H]3c3ccc(OCCCOCc4ccccc4OC)cc3)cc21` [D, (3R,4R)-[7-(4-[4-[3-(2-methoxy-benzyloxy)-propoxy]-phenyl]-piperidin-3-yloxymethyl)-3,4-dihydro-2H-quinolin-1-yl]-acetic acid methyl ester], the IC50 was determined as 0.02 nM.

The record behind these values is patent US6197959A, “Piperidine derivatives” (Hoffmann-La Roche Inc., priority 1999, dated 2001).
